Test results from article PMC8287724, “Reducing Auditory Nerve Excitability by Acute Antagonism of Ca^2+-Permeable AMPA Receptors” (Frontiers in Synaptic Neuroscience, 2021).

Assays:
[1] = system: pyramidal cells (expressing mainly GluA2-containing CI-AMPARs); design: method as in Tikhonov et al., 2000; settings: rat hippocampus ref Tikhonov et al., 2000; cited from earlier work
[2] = system: non-pyramidal cells (expressing mainly GluA2-lacking CP-AMPARs); design: method as in Tikhonov et al., 2000; settings: 2000, cited from earlier work; for IC50: rat hippocampus ref Tikhonov et al.; for apparent selectivity for CP- over CI-AMPARs: ref Tikhonov et al.
[3] = molecular target: T1, M1 acetylcholine GPCR (Homo sapiens, UniProt P11229); experiment: Radioligand binding assay, M1 receptor (transfected CHO cells); settings: antagonist 1 μM
T1 construct: host or cells: CHO cells
T1 sequence (P11229 whole entry): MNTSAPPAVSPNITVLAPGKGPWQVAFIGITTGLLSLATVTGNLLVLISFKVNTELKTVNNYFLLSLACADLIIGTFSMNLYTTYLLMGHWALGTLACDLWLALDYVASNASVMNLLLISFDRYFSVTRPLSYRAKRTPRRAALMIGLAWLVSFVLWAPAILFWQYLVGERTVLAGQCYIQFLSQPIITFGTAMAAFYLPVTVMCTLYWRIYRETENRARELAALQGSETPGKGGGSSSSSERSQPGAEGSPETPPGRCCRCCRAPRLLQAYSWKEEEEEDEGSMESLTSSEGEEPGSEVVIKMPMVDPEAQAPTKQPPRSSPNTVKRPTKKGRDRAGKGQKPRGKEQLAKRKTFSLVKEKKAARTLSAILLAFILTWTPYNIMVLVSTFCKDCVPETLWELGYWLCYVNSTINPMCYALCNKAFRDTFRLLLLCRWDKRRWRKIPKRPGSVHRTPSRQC
Experimental: (§1) Binding assays were conducted to evaluate the affinity of test compounds IEM-1460 and IEM-1925 (Eurofins Scientific, Inc.) for 15 targets: the human alpha-1 adrenergic (A1) receptor, histaminergic (H)-2 and−3 receptors, and muscarinic acetylcholine receptors-1 to−5 in transfected CHO cells by radioligand binding. The neuronal α4β2 and neuronal α7 cholinergic acetylcholine receptors were tested in transfected SH-SY5Y cells. The histaminergic-1 and−4 receptors were tested in transfected HEK-293 cells. Ion channel testing for AMPA and N-methyl-D-aspartate (NMDA) was performed in cells from the rat cerebral cortex. […] Non-specific binding was determined in the presence of 1 μM of DCPX. […] The filters were dried and then counted for radioactivity in a scintillation counter (Topcount, Packard) using a scintillation cocktail (Microscint 0, Packard). The results are expressed as a percent inhibition of the control radioligand specific binding: 100-[(measured specific binding)/(control specific binding) × 100]. […]
(§2) We tested the metabolic stability of the compounds with in vitro liver microsome stability assays (Table 1, right). […] We evaluated the compounds for potential toxicity with assays that test for inhibition of off-target ion channels and receptors. […]

[4] = molecular target: T2, M4 acetylcholine GPCR (Homo sapiens, UniProt P08173); experiment: Radioligand binding assay, M4 receptor (transfected CHO cells); settings: antagonist 1 μM
T2 construct: host or cells: CHO cells
T2 sequence (P08173 whole entry): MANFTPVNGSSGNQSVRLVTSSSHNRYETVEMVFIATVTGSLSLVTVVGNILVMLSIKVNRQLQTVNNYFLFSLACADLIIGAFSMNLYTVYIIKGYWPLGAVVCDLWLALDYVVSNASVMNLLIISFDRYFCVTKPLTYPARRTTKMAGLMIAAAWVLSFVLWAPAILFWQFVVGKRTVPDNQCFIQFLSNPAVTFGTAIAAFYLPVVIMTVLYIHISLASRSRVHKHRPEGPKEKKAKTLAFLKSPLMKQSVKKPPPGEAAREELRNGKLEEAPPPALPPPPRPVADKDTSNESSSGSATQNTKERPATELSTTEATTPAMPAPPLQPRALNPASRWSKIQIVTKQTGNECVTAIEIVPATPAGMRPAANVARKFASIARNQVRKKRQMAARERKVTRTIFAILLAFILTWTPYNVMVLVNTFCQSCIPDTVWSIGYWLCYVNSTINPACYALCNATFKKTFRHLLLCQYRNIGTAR
Experimental: as §1, §2

[5] = system: NMDA glutamate; experiment: Radioligand binding assay, NMDA receptor (rat cerebral cortex); settings: antagonist 1 μM
Experimental: as §1, §2

[6] = molecular target: T3, M3 acetylcholine GPCR (Homo sapiens, UniProt P20309); experiment: Radioligand binding assay, M3 receptor (transfected CHO cells); settings: antagonist 1 μM
T3 construct: host or cells: CHO cells
T3 sequence (P20309 whole entry): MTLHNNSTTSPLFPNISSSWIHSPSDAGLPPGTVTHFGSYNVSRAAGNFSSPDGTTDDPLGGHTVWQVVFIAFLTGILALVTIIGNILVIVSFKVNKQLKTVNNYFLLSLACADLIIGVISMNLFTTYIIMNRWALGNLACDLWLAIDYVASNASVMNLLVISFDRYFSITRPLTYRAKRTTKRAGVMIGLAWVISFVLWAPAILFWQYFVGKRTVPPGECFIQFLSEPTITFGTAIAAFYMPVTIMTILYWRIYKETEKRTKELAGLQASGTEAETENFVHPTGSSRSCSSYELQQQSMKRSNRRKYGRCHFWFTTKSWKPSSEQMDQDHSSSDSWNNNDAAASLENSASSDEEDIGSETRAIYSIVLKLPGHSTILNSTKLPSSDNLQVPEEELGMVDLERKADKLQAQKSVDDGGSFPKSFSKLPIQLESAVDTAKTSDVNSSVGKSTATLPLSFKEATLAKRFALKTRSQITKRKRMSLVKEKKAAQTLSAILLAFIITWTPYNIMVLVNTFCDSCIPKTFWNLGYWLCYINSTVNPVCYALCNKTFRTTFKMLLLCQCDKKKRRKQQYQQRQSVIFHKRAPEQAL
Experimental: as §1, §2

[7] = system: AMPA glutamate (GluA2-containing); experiment: Radioligand binding assay, AMPA receptor (rat cerebral cortex); settings: antagonist 1 μM
Experimental: as §1, §2

[8] = molecular target: T4, H2 histamine GPCR (Homo sapiens, UniProt P25021); experiment: Radioligand binding assay, H2 receptor (transfected CHO cells); settings: antagonist 1 μM
T4 construct: host or cells: CHO cells
T4 sequence (P25021 whole entry): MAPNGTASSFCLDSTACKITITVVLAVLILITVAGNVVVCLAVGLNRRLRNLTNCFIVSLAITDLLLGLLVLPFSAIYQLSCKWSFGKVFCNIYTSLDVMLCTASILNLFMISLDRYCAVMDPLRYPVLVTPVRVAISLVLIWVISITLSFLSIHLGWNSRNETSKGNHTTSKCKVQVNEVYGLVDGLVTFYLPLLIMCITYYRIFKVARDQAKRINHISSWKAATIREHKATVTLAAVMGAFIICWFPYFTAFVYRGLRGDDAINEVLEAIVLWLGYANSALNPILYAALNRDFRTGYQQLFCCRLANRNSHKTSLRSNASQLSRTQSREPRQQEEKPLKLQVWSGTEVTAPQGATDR
Experimental: as §1, §2

[9] = molecular target: T5, nAChR alpha7 (Homo sapiens, UniProt P36544); experiment: Radioligand binding assay, neuronal α7 nicotinic receptor (transfected SH-SY5Y cells); settings: antagonist 1 μM
T5 construct: host or cells: SH-SY5Y cells
T5 sequence (P36544 23-502): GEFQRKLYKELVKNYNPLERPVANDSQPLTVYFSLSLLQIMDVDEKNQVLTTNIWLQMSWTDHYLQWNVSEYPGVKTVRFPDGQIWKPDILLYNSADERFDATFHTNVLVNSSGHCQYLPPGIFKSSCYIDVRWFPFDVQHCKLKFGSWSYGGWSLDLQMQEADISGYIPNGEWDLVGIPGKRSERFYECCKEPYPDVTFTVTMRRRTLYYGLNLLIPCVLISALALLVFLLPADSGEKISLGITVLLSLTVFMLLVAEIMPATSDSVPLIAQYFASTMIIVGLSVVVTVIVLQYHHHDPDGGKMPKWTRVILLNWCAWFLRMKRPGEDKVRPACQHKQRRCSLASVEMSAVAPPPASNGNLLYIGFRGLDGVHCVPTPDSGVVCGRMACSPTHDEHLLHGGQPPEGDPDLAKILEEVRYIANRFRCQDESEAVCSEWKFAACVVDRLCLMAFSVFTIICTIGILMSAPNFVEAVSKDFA
Experimental: as §1, §2

[10] = In vitro microsomal stability assay, human; assay type: in vitro ADME; settings: pH 7.4; human liver microsomes, 1 μM compound, 37°C; read-out: Half-life (min) Mean (N = 2)
Experimental: The stability of IEM-1460 in the presence of guinea pig liver microsomes (BioIVT, PN: X008070) or IEM-1925 in the presence of human (BioIVT, PN: M00101), mouse, or guinea pig liver microsomes was evaluated (Paraza Pharma, Inc., Montreal, Quebec, Canada). Both IEM-1925 and IEM-1460 were incubated with microsomes at 37°C for a total of 45 min. Working solutions were prepared in 100 mM potassium phosphate buffer and the final reaction was performed at pH 7.4 in 100 mM potassium phosphate buffer containing 0.5 mg/mL liver microsomal protein. Phase I metabolism was assessed by adding NADPH to a final concentration of 1 mM and collecting samples at time points 0, 5, 15, 30, and 45 min. All collected samples were quenched 1:1 with ice-cold stop solution (1 μM labetalol and 1 μM glyburide in acetonitrile) and centrifuged to remove precipitated protein. […] Samples were analyzed by LC-MS/MS using a Thermo Vanquish UPLC and a Thermo Quantis triple quadrupole mass spectrometer. […] Reference compounds were also assessed to ensure accuracy and precision of experimental protocol: imipramine and verapamil for human liver microsomes, diphenhydramine and verapamil for mouse liver microsomes, and warfarin and verapamil for guinea pig liver microsomes. […] Half-life was determined from a plot of the natural logarithm of the peak area ratio (remaining compound peak area/internal standard peak area) against time. […]

[11] = molecular target: T6, M2 acetylcholine GPCR (Homo sapiens, UniProt P08172); experiment: Radioligand binding assay, M2 receptor (transfected CHO cells); settings: antagonist 1 μM
T6 construct: host or cells: CHO cells
T6 sequence (P08172 whole entry): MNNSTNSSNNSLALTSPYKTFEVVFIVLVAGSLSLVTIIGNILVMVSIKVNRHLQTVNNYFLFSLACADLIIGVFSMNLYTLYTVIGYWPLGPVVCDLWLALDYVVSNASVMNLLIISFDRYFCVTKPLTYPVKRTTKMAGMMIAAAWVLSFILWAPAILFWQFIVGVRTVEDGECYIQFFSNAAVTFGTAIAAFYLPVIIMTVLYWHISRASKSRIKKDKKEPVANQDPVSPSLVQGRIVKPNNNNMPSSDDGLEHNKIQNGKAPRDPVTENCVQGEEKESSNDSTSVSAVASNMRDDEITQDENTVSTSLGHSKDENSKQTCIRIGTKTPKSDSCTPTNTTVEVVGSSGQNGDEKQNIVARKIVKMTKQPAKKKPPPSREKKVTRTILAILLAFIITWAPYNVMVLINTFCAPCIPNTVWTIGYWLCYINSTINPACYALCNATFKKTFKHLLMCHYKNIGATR
Experimental: as §1, §2

SMILES | IC50 [1] | IC50 [2] | apparent selectivity for CP- over CI-AMPARs [2] | Mean% inhibition (N = 2) of radioligand binding [3] | Mean% inhibition (N = 2) of radioligand binding [4] | Mean% inhibition (N = 2) of radioligand binding [5] | Mean% inhibition (N = 2) of radioligand binding [6] | Mean% inhibition (N = 2) of radioligand binding [7] | Mean% inhibition (N = 2) of radioligand binding [8] | Mean% inhibition (N = 2) of radioligand binding [9] | half-life at 1 μM [10] | Mean% inhibition (N = 2) of radioligand binding [11]
NCCCCCNC1(c2ccccc2)CCCCC1 [IEM-1925] | > 200000 nM | ~1000 nM | ~ 300 fold | <1% | 19% | <1% | <5% | 9.5% | <1% | <2% | > 300 min | <1%
C[N+](C)(C)CCCCCNCC12CC3CC(CC(C3)C1)C2 [IEM-1460] | > 500000 nM | ~3000 nM | ~ 300 fold | <1% | 37% | <1% | 15% | <1% | <1% | <1% | > 300 min | <1%
